# Measured values reported in patent publication US20260262643A1, “HERBICIDAL BENZOXAZINES” (FMC CORPORATION, priority 2022, published 2026).
# Key:
# [1] = tested on: barnyardgrass; assay: Test C postemergence; assay type: in vivo, Echinochloa crusgalli; conditions: 10 days, 0 to 100 scale (0 no effect, 100 complete control)
# Procedure, shortened: (§1)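 Soil-applied (pre) and foliar (post, 1–2 leaf, 2–10 cm) sprays; surfactant-containing non-phytotoxic solvent vehicle; loam/sand substrate. Readout: visual % control at 10 d, greenhouse, versus untreated.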
# [2] = tested on: blackgrass; assay: Test C preemergence; assay type: in vivo, Alopecurus myosuroides; conditions: for Blackgrass plant response rating: 500 g ai/ha, preemergence, 0 to 100 scale (0 no effect, 100 complete control); for Plant response rating, Blackgrass: Preemergence, 125 g ai/ha, 0 to 100 scale, 0 no effect, 100 complete control
# Procedure, shortened: as §1
# [3] = tested on: ragweed; assay: Test C preemergence; assay type: in vivo, Ambrosia artemisiifolia; conditions: for Ragweed plant response rating: 500 g ai/ha, preemergence, 0 to 100 scale (0 no effect, 100 complete control); for Plant response rating, Ragweed: Preemergence, 125 g ai/ha, 0 to 100 scale, 0 no effect, 100 complete control
# Procedure, shortened: as §1
# [4] = tested on: kochia; assay: Test C postemergence; assay type: in vivo, Bassia scoparia; conditions: 10 days, 0 to 100 scale (0 no effect, 100 complete control)
# Procedure, shortened: as §1
# [5] = tested on: green foxtail; assay: Test C postemergence; assay type: in vivo, Setaria viridis; conditions: 10 days, 0 to 100 scale (0 no effect, 100 complete control)
# Procedure, shortened: as §1
# [6] = tested on: corn; assay: Test C preemergence; assay type: in vivo, Zea mays; conditions: for Corn plant response rating: 500 g ai/ha, preemergence, 0 to 100 scale (0 no effect, 100 complete control); for Plant response rating, Corn: Preemergence, 125 g ai/ha, 0 to 100 scale, 0 no effect, 100 complete control
# Procedure, shortened: as §1
# [7] = tested on: rice; assay: Test D flooded paddy test; assay type: in vivo, Oryza sativa; conditions: 250 g ai/ha, applied to paddy water, visual rating after 13 to 14 days, scale 0 to 100 (0 no effect, 100 complete control)
# Procedure, shortened: (§2)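 Seedlings reached the 2-leaf stage, then pots were flooded to 3 cm over the soil surface. Compound was applied into the water, depth was maintained, and plants stayed in the greenhouse 13 to 14 days before visual scoring (0–100) relative to controls.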
# [8] = tested on: oat, wild; assay: Test C preemergence; assay type: in vivo, Avena fatua; conditions: for Oat, Wild plant response rating: 500 g ai/ha, preemergence, 0 to 100 scale (0 no effect, 100 complete control); for Plant response rating, Oat, Wild: Preemergence, 125 g ai/ha, 0 to 100 scale, 0 no effect, 100 complete control
# Procedure, shortened: as §1
# [9] = tested on: wheat; assay: Test C preemergence; assay type: in vivo, Triticum aestivum; conditions: for Wheat plant response rating: 500 g ai/ha, preemergence, 0 to 100 scale (0 no effect, 100 complete control); for Plant response rating, Wheat: Preemergence, 125 g ai/ha, 0 to 100 scale, 0 no effect, 100 complete control
# Procedure, shortened: as §1
# [10] = tested on: ducksalad; assay: Test D flooded paddy test; assay type: in vivo, Heteranthera limosa; conditions: 250 g ai/ha, applied to paddy water, visual rating after 13 to 14 days, scale 0 to 100 (0 no effect, 100 complete control)
# Procedure, shortened: as §2
# [11] = tested on: barnyardgrass; assay: Test C preemergence; assay type: in vivo, Echinochloa crusgalli; conditions: for Barnyardgrass plant response rating: 500 g ai/ha, preemergence, 0 to 100 scale (0 no effect, 100 complete control); for Plant response rating, Barnyardgrass: Preemergence, 125 g ai/ha, 0 to 100 scale, 0 no effect, 100 complete control
# Procedure, shortened: as §1
# [12] = tested on: green foxtail; assay: Test C preemergence; assay type: in vivo, Setaria viridis; conditions: for Foxtail, Green plant response rating: 500 g ai/ha, preemergence, 0 to 100 scale (0 no effect, 100 complete control); for Plant response rating, Foxtail, Green: Preemergence, 125 g ai/ha, 0 to 100 scale, 0 no effect, 100 complete control
# Procedure, shortened: as §1
# [13] = tested on: sedge, umbrella; assay: Test D flooded paddy test; assay type: in vivo, Cyperus difformis; conditions: 250 g ai/ha, applied to paddy water, visual rating after 13 to 14 days, scale 0 to 100 (0 no effect, 100 complete control)
# Procedure, shortened: as §2
# [14] = tested on: horseweed; assay: Test C postemergence; assay type: in vivo, Erigeron canadensis; conditions: 10 days, 0 to 100 scale (0 no effect, 100 complete control)
# Procedure, shortened: as §1
# [15] = tested on: barnyardgrass; assay: Test D flooded paddy test; assay type: in vivo, Echinochloa crus-galli; conditions: 250 g ai/ha, applied to paddy water, visual rating after 13 to 14 days, scale 0 to 100 (0 no effect, 100 complete control)
# Procedure, shortened: as §2
# [16] = tested on: soybean; assay: Test C preemergence; assay type: in vivo, Glycine max; conditions: for Soybean plant response rating: 500 g ai/ha, preemergence, 0 to 100 scale (0 no effect, 100 complete control); for Plant response rating, Soybean: Preemergence, 125 g ai/ha, 0 to 100 scale, 0 no effect, 100 complete control
# Procedure, shortened: as §1
# [17] = tested on: corn; assay: Test C postemergence; assay type: in vivo, Zea mays; conditions: 10 days, 0 to 100 scale (0 no effect, 100 complete control)
# Procedure, shortened: as §1
# [18] = tested on: wheat; assay: Test C postemergence; assay type: in vivo, Triticum aestivum; conditions: Postemergence, 125 g ai/ha; 0 to 100 scale (0 no effect, 100 complete control), 10 days
# Procedure, shortened: as §1
# [19] = tested on: blackgrass; assay: Test C postemergence; assay type: in vivo, Alopecurus myosuroides; conditions: 10 days, 0 to 100 scale (0 no effect, 100 complete control)
# Procedure, shortened: as §1
# [20] = tested on: pigweed, palmer; assay: Test C preemergence; assay type: in vivo, Amaranthus palmeri; conditions: for Pigweed, Palmer plant response rating: 500 g ai/ha, preemergence, 0 to 100 scale (0 no effect, 100 complete control); for Plant response rating, Pigweed, Palmer: Preemergence, 125 g ai/ha, 0 to 100 scale, 0 no effect, 100 complete control
# Procedure, shortened: as §1
# [21] = tested on: oat, wild; assay: Test C postemergence; assay type: in vivo, Avena fatua; conditions: 10 days, 0 to 100 scale (0 no effect, 100 complete control)
# Procedure, shortened: as §1
# [22] = tested on: ryegrass, Italian; assay: Test C postemergence; assay type: in vivo, Lolium multiflorum; conditions: Postemergence, 125 g ai/ha; 0 to 100 scale (0 no effect, 100 complete control), 10 days
# Procedure, shortened: as §1
# [23] = tested on: ryegrass, Italian; assay: Test C preemergence; assay type: in vivo, Lolium multiflorum; conditions: for Ryegrass, Italian plant response rating: 500 g ai/ha, preemergence, 0 to 100 scale (0 no effect, 100 complete control); for Plant response rating, Ryegrass, Italian: Preemergence, 125 g ai/ha, 0 to 100 scale, 0 no effect, 100 complete control
# Procedure, shortened: as §1
# [24] = tested on: kochia; assay: Test C preemergence; assay type: in vivo, Bassia scoparia; conditions: for Kochia plant response rating: 500 g ai/ha, preemergence, 0 to 100 scale (0 no effect, 100 complete control); for Plant response rating, Kochia: Preemergence, 125 g ai/ha, 0 to 100 scale, 0 no effect, 100 complete control
# Procedure, shortened: as §1
# [25] = tested on: pigweed, palmer; assay: Test C postemergence; assay type: in vivo, Amaranthus palmeri; conditions: 10 days, 0 to 100 scale (0 no effect, 100 complete control)
# Procedure, shortened: as §1
# [26] = tested on: ragweed; assay: Test C postemergence; assay type: in vivo, Ambrosia artemisiifolia; conditions: Postemergence, 125 g ai/ha; 0 to 100 scale (0 no effect, 100 complete control), 10 days
# Procedure, shortened: as §1
# [27] = tested on: soybean; assay: Test C postemergence; assay type: in vivo, Glycine max; conditions: Postemergence, 125 g ai/ha; 0 to 100 scale (0 no effect, 100 complete control), 10 days
# Procedure, shortened: as §1
smiles,measurement,setting,value
Cc1ccc(-n2cnc(C3(C#N)CCC3)n2)cc1C(=O)N1C[C@H](C)Oc2c(Cl)cccc21 [Compound 402],"Plant response rating, Barnyardgrass","[1]; 500 g ai/ha, postemergence",50
same,"Plant response rating, Barnyardgrass","[1]; Postemergence, 125 g ai/ha",20
same,Blackgrass plant response rating,[2],30
same,"Plant response rating, Blackgrass",[2],30
same,Ragweed plant response rating,[3],50
same,"Plant response rating, Ragweed",[3],0
same,"Plant response rating, Kochia","[4]; 500 g ai/ha, postemergence",90
same,"Plant response rating, Kochia","[4]; Postemergence, 125 g ai/ha",90
same,"Plant response rating, Foxtail, Green","[5]; 500 g ai/ha, postemergence",90
same,"Plant response rating, Foxtail, Green","[5]; Postemergence, 125 g ai/ha",70
same,Corn plant response rating,[6],20
same,"Plant response rating, Corn",[6],0
same,"Plant response rating, Rice (Flood)",[7],0
same,"Oat, Wild plant response rating",[8],40
same,"Plant response rating, Oat, Wild",[8],20
same,Wheat plant response rating,[9],30
same,"Plant response rating, Wheat",[9],0
same,"Plant response rating, Ducksalad (Flood)",[10],45
same,Barnyardgrass plant response rating,[11],100
same,"Plant response rating, Barnyardgrass",[11],60
same,"Foxtail, Green plant response rating",[12],100
same,"Plant response rating, Foxtail, Green",[12],100
same,"Plant response rating, Sedge, Umbrella (Flood)",[13],25
same,"Plant response rating, Horseweed","[14]; 500 g ai/ha, postemergence",70
same,"Plant response rating, Horseweed","[14]; Postemergence, 125 g ai/ha",50
same,"Plant response rating, Barnyardgrass (Flood)",[15],25
same,Soybean plant response rating,[16],40
same,"Plant response rating, Soybean",[16],20
same,"Plant response rating, Corn","[17]; 500 g ai/ha, postemergence",60
same,"Plant response rating, Corn","[17]; Postemergence, 125 g ai/ha",10
same,"Plant response rating, Wheat",[18],20
same,"Plant response rating, Blackgrass","[19]; 500 g ai/ha, postemergence",60
same,"Plant response rating, Blackgrass","[19]; Postemergence, 125 g ai/ha",20
same,"Pigweed, Palmer plant response rating",[20],100
same,"Plant response rating, Pigweed, Palmer",[20],100
same,"Plant response rating, Oat, Wild","[21]; 500 g ai/ha, postemergence",20
same,"Plant response rating, Oat, Wild","[21]; Postemergence, 125 g ai/ha",0
same,"Plant response rating, Ryegrass, Italian",[22],30
same,"Ryegrass, Italian plant response rating",[23],80
same,"Plant response rating, Ryegrass, Italian",[23],70
same,Kochia plant response rating,[24],90
same,"Plant response rating, Kochia",[24],90
same,"Plant response rating, Pigweed, Palmer","[25]; 500 g ai/ha, postemergence",100
same,"Plant response rating, Pigweed, Palmer","[25]; Postemergence, 125 g ai/ha",90
same,"Plant response rating, Ragweed",[26],90
same,"Plant response rating, Soybean",[27],40
Cc1ccc(-n2cnc(C3(C#N)CC3)n2)cc1C(=O)N1C[C@H](C)Oc2c(Cl)cccc21 [Compound 398],"Plant response rating, Barnyardgrass","[1]; 500 g ai/ha, postemergence",50
same,"Plant response rating, Barnyardgrass","[1]; Postemergence, 125 g ai/ha",20
same,Blackgrass plant response rating,[2],40
same,"Plant response rating, Blackgrass",[2],30
same,Ragweed plant response rating,[3],30
same,"Plant response rating, Ragweed",[3],0
same,"Plant response rating, Kochia","[4]; 500 g ai/ha, postemergence",90
same,"Plant response rating, Kochia","[4]; Postemergence, 125 g ai/ha",90
same,"Plant response rating, Foxtail, Green","[5]; 500 g ai/ha, postemergence",90
same,"Plant response rating, Foxtail, Green","[5]; Postemergence, 125 g ai/ha",70
same,Corn plant response rating,[6],0
same,"Plant response rating, Corn",[6],0
same,"Plant response rating, Rice (Flood)",[7],15
same,"Oat, Wild plant response rating",[8],40
same,"Plant response rating, Oat, Wild",[8],0
same,Wheat plant response rating,[9],20
same,"Plant response rating, Wheat",[9],0
same,"Plant response rating, Ducksalad (Flood)",[10],15
same,Barnyardgrass plant response rating,[11],90
same,"Plant response rating, Barnyardgrass",[11],60
same,"Foxtail, Green plant response rating",[12],100
same,"Plant response rating, Foxtail, Green",[12],100
same,"Plant response rating, Sedge, Umbrella (Flood)",[13],45
same,"Plant response rating, Horseweed","[14]; 500 g ai/ha, postemergence",60
same,"Plant response rating, Horseweed","[14]; Postemergence, 125 g ai/ha",60
same,"Plant response rating, Barnyardgrass (Flood)",[15],25
same,Soybean plant response rating,[16],60
same,"Plant response rating, Soybean",[16],40
same,"Plant response rating, Corn","[17]; 500 g ai/ha, postemergence",80
same,"Plant response rating, Corn","[17]; Postemergence, 125 g ai/ha",10
same,"Plant response rating, Wheat",[18],20
same,"Plant response rating, Blackgrass","[19]; 500 g ai/ha, postemergence",90
same,"Plant response rating, Blackgrass","[19]; Postemergence, 125 g ai/ha",70
same,"Pigweed, Palmer plant response rating",[20],100
same,"Plant response rating, Pigweed, Palmer",[20],100
same,"Plant response rating, Oat, Wild","[21]; 500 g ai/ha, postemergence",60
same,"Plant response rating, Oat, Wild","[21]; Postemergence, 125 g ai/ha",0
same,"Plant response rating, Ryegrass, Italian",[22],30
same,"Ryegrass, Italian plant response rating",[23],80
same,"Plant response rating, Ryegrass, Italian",[23],40
same,Kochia plant response rating,[24],100
same,"Plant response rating, Kochia",[24],90
same,"Plant response rating, Pigweed, Palmer","[25]; 500 g ai/ha, postemergence",100
same,"Plant response rating, Pigweed, Palmer","[25]; Postemergence, 125 g ai/ha",90
same,"Plant response rating, Ragweed",[26],70
same,"Plant response rating, Soybean",[27],20
